From patent US6906108B2, “Extracts of vetiver oil as repellent and toxicant to ants, ticks, and cockroaches” (Board of Supervisors of Louisiana State University and …, priority 2001, dated 2005)

Assays:
Assay type in all cases: in vivo
[1] = test system: German cockroaches (Blattella germanica); experiment: German cockroach Petri dish filter paper bioassay (repellency and toxicity)
Description: To test the efficacy of nootkatone against cockroaches, German cockroaches (Blattella germanica) were collected at Baton Rouge, La., the same day as the bioassay was begun.
For the bioassay, Petri dishes (10 cm diameter×1 cm) were used. The Petri dishes were prepared by lining one half of the top and one half of the bottom with a half circle of filter paper (125 mm), and lining the other half with a second half circle of filter paper. For the treated Petri dishes, 50 mg nootkatone and 300 mg REPEL® were dissolved in 2.0 ml ethanol. To each Petri dish was added either ethanol only, 30 mg Deet, 1 mg nootkatone, or 10 mg nootkatone. Ten replicate Petri dishes were used for each of the treatments. The ethanol solution was added to the filter paper on the top and bottom and dried for 10 min. One cockroach was added to each Petri dish. The length of the cockroaches varied from 1 to 1.5 cm. The dishes were then observed at 15 min, 30 min, 1 hr, 2 hr, 3 hr, 4 hr, 5 hr, 24 hr, 48 hr, and 120 hr.

[2] = test system: ticks (Ixodes scapularis); experiment: Tick Petri dish bioassay with treated sand (repellency and toxicity); settings: 2.75 mg/dish
Description: To test the effectiveness of nootkatone against ticks, ticks (Ixodes scapularis) were collected from Idlewild, La. Nootkatone efficiacy was tested relative to a known repellent, N,N-diethyl-m-toluamide (“Deet”). REPEL®, which contains 27.55% Deet, was purchased locally from a retail garden store.
The bioassay was conducted using Petri dishes (5 cm diameter and 1 cm height). To ensure adequate moisture for the ticks, 1 ml of a hot agar solution (1.5% in H2O) was spread evenly on the inside surfaces of the Petri dish, including the top, bottom, and edges. After the agar cooled, sand that was treated as described below was spread evenly on the inside surfaces of the Petri dish. The sand was held in place by the agar.
For the treated sand, either 2 mg nootkatone or 100 mg REPEL® was initially dissolved in 2 ml ethanol, and then 200 μl of the solution was mixed with 2 g sand that had been autoclaved and cooled. The control was autoclaved sand with 200 μl ethanol only added. One half of the surfaces in the Petri dishes were covered with 2 g treated sand, and the other half with 2 g untreated sand. In the nootkatone-treated Petri dishes, the final concentration was 200 μg/dish; while in the Deet treated Petri dishes, the final concentration was 2.75 mg/dish. Control Petri dishes were prepared by covering all sides with untreated sand. One tick was added to each Petri dish, and the top replaced. The number of replicates were as follows: control, 6; nootkatone, 9; and Deet, 8. […] Repellent activity was noted if the tick was found on the untreated side of the Petri dish. The ticks in the control Petri dishes were randomly distributed on the left and right sides.
The above experiment was repeated with ticks (Ix. scapularis) collected from Hammond, La. The number of replicates in this experiment were as follows: controls, 8; nootkatone, 10; and Deet, 8.

[3] = test system: cat fleas (Ctenocephalides felis (Bouche)); experiment: Cat flea Petri dish filter paper bioassay (repellency and mortality); settings: 2.76 mg per dish
Description: To test the effectiveness of nootkatone against fleas, cat fleas (Ctenocephalides felis (Bouche)) were collected from a flea colony at St. Gabriel, La.
Petri dishes (5 cm diameter and 1 cm height) were prepared by lining one half of the top and the bottom with a half circle of filter paper (55 mm), and lining the other half with a second half circle of filter paper. For the treated Petri dishes, 50 mg nootkatone or 100 mg REPEL® were dissolved in 0.5 ml ethanol. […] Ten replicate Petri dishes were used for each of the treatments. The ethanol solution was added to the filter paper on the top and bottom and dried for 10 min. To place the fleas in the Petri dishes, fleas were temporarily immobilized by placing them at −20° C. for 5 min. The number of fleas in each Petri dish varied: for the 10 control Petri dishes, the average number in each dish was 10.2, with a range of 4 to 23; for 0.2 mg nootkatone, the average number in each dish was 8.5, with a range of 5 to 18; for 1 mg nootkatone, the average number in each dish was 10.6, with a range of 6 to 21; for 2 mg nootkatone, the average number in each dish was 11.1, with a range of 9 to 15 (Fleas could be counted in only 9 Petri dishes; one had too many fleas to count); and for 2.76 mg Deet, the average number in each dish was 6.7, with a range of 5 to 9.
The number of fleas on each side of each Petri dish was counted at 1 hr, 2 hr, 3 hr, 4 hr, 24 hr, 48 hr, 72 hr, and 96 hr.

[4] = 8 replicates, ticks from Hammond

SMILES: CCN(CC)C(=O)c1cccc(C)c1 [Deet, N,N-diethyl-m-toluamide, reference compound]
- Repellent activity against the cockroaches ([1]; 30 mg per dish): no significant repellent activity
- Percent Repellency ([1]; 30 mg per dish, 30 min): 50%
- Percent Repellency ([1]; 30 mg per dish, 1 hr): 40%
- Percent Repellency ([1]; 30 mg per dish, 2 hr): 70%
- Percent Repellency ([1]; 30 mg per dish, 3 hr): 50%
- Percent Repellency ([1]; 30 mg per dish, 4 hr): 60%
- Percent Repellency ([1]; 30 mg per dish, 5 hr): 70%
- Percent Repellency ([1]; 30 mg per dish, 24 hr): 38%
- Percent Repellency ([1]; 30 mg per dish, 48 hr): 43%
- Percent Repellency ([1]; 30 mg per dish, 120 hr): 50%
- Number of cockroach deaths compared with the control ([1]; any of the treatments (30 mg Deet; 1 mg or 10 mg nootkatone), up to 120 hr): not significantly different from the control
- Petri dishes that lost the repellent activity after 96 hr [2, 4]: one
- Ticks dead at 24 hr (number) [2, 4]: one
- Ticks dead at 72 hr (number) [2, 4]: one
- Ticks dead at 96 hr (number) [2, 4]: four
- Petri dishes that had lost the repellent activity after 90 hr ([2]; 8 replicates, ticks from Idlewild): three
- Ticks dead at 96 hr (percent) ([2]; ticks from Hammond): 50%
- Ticks dead after 90 hr ([2]; ticks from Idlewild): No ticks
- Overall activity against fleas [3]: effective as both a repellent and a toxicant
- Repellent activity against fleas ([3]; first observation (1 hr)): showed repellent activity
